In ChEMBL document CHEMBL3124819, “2',4'-Difluoro-2'-methyl Substituted Nucleoside Derivatives as Inhibitors of HCV RNA Replication” (ACS Med Chem Lett, 2014) one finds CC50 and IC50 data, which are given here for 4 compounds.

Each structure is given as a SMILES string.

Data set [1] is described as follows: Cytotoxicity against human HuH7 cells after 2 hrs by WST-1 assay relative to control. The format is cell-based, Huh-7. (Tetrazolium assays rely on reduction of a dye to a coloured formazan, in cell work by metabolically active cells.)
The test system of a further data set is Hepatitis C virus. Briefly: Antiviral activity against HCV genotype 1b infected in human HuH7 cells assessed as inhibition of viral RNA replication after 3 days by luciferase reporter gene assay. The settings on record: Huh-7, 72 h. The format is functional, organism-based, Hepacivirus hominis. For orientation: A reporter such as luciferase makes a cellular process visible.

The term CC50 denotes the concentration giving 50% cytotoxicity. A low value points to greater toxicity to the cells. As a reminder, the IC50 is the concentration at which inhibition is half-maximal.

As for `CCC(=O)O[C@H]1[C@@](C)(F)[C@H](n2ccc(=O)[nH]c2=O)O[C@]1(F)COP(=O)(N[C@@H](C)C(=O)OC(C)C)Oc1cccc2ccccc12` (stereo partly specified), the CC50 at 2 h in data set [1] came out at 67.8 µM. In addition, in the data set with Hepatitis C virus, the IC50 was determined as 0.151 µM.

`CC(C)OC(=O)[C@H](C)NP(=O)(OC[C@@]1(F)O[C@@H](n2ccc(=O)[nH]c2=O)[C@](C)(F)[C@@H]1O)Oc1ccc2ccccc2c1` (stereo partly specified) showed a CC50 at 2 h in data set [1] of more than 100 µM.

In data set [1], `CC(C)OC(=O)[C@H](C)NP(=O)(OC[C@@]1(F)O[C@@H](n2ccc(=O)[nH]c2=O)[C@](C)(F)[C@@H]1O)Oc1cccc2ccccc12` (stereo partly specified) displayed a CC50 at 2 h of more than 100 µM. Further, in the data set on Hepatitis C virus, the IC50 came to 0.115 µM.

Take `CC(C)OC(=O)[C@H](C)NP(=O)(OC[C@@]1(F)O[C@@H](n2ccc(=O)[nH]c2=O)[C@](C)(F)[C@@H]1O)Oc1ccccc1` (stereo partly specified): in data set [1], the 50% cytotoxic concentration (CC50) at 2 h was more than 100 µM.
